The source of these data is US12286411B2, “Indane derivatives for use in the treatment of bacterial infection” (priority 2018, dated 2025).

Test [1] has as its target T1, LasB elastase (dialysed supernatant from P. aeruginosa PAO1) (Pseudomonas aeruginosa, UniProt P14756).
T1 construct: Culture supernatants are recovered by centrifugation and filtrated through a 0.22 μM filter; endogenous in cells; host or cells: P. aeruginosa PAO1 culture supernatant, dialysed
The test is described as follows: Elastin assay to determine % inhibition (Elastin Congo-Red, dialysed PAO1 supernatant). Format: biochemical. The settings on record: read-out: Elastin hydrolysis % inhibition @ 50/25 μM inhibitor concentration. The protocol:
Experiments were therefore conducted (1) to measure the potency of inhibition of compounds of the invention against purified Pseudomonas aeruginosa LasB enzyme and also experiments were conducted (2) to measure the ability of compounds of the invention to inhibit LasB-catalysed elastin degradation. The first assay uses a commercial fluorescent synthetic peptide and purified LasB enzyme. The LasB hydrolysis kinetics are measured allowing the determination of the IC50 and Ki of the inhibitors; the second is a more physiological assay using dialysed Pseudomonas aeruginosa supernatant as source of enzyme, plus its natural substrate Elastin. It is an “end point assay” that determines the percentage of LasB inhibition by each compound for one particular time point and inhibitor concentration. Technical details are described below:
The Elastin assay uses as source of enzyme dialysed supernatant from P. aeruginosa PAO1 and the Elastin Congo-Red as substrate. The natural LasB substrate, elastin, is complexed with the congo-red dye (Elastin Congo-Red, ECR). The elastolysis activity from the culture supernatant will degrade elastin and release the congo-red dye into the supernatant. This red dye release can be measured with a spectrophotometer.
Method: To determine LasB elastase activity and assess compound inhibition, an overnight culture of P. aeruginosa strain PA01 is diluted in LB medium. After reaching an ° Dam. of 0.6, this culture is diluted and incubated for additional 18-24 hours in a shaking incubator. Culture supernatants are recovered by centrifugation and filtrated through a […] filter. These supernatants are dialysed (filtration molecules <20 kDa) into a 50 mM Tris-HCl pH 7.4, 2.5 mM CaCl2 solution at 4° C. under agitation for 24 hours. Supernatant dialysed is then mixed volume/volume with the ECR suspension (20 mg/mL of ECR in 100 mM Tris-HCl pH 7.4 buffer supplemented with 1 mM CaCl2) supplemented with Triton X100 (final concentration of 0.01%) in presence of DMSO (positive control) and/or different concentrations of compound (routinely 50 to 1.56 μM). As a negative control, the dialysed supernatant is replaced by Tris-HCl solution (50 mM Tris-HCl pH 7.4, 2.5 mM CaCl2). The mixed reaction is then incubated overnight in a 37° C. shaking incubator. The reaction supernatant is recovered by centrifugation and the release of congo-red is measured by its absorbance at 495 nm (OD495nm).
Percentage inhibition is determined using the following equation: ((OD495nm value of positive control−OD495nm value of negative control)−(OD495nm value of treated supernatant OD495nm value of negative control))/(OD495nm value of positive control−OD495nm value of negative control)×100.

Test [2] concerns Pseudomonas aeruginosa (PAO1). The test is described as follows: Mouse model of Pseudomonas aeruginosa lung infection. Format: in vivo. The settings on record: mice infected intranasally with wild-type PAO1, compound i.v. 1 h and 2 h post infection, 10 and 30 mg/kg, 24 hours post infection. The procedure: Mice were dosed by intranasal inoculation of PA (PAO1), then scarified after 24 hours. The extent of infection in the lung was quantified by bacterial load (CFU determination, colony forming units) and the levels of proinflammatory IL-1β. Statistical analysis on both readouts were performed by ANOVA with a Dunnett post-test.
Compounds were administered intravenously in a two-dose regimen (1 hour and 2 hours post infection) at two different doses (10 and 30 mg/kg).

T1 sequence (P14756 198-498): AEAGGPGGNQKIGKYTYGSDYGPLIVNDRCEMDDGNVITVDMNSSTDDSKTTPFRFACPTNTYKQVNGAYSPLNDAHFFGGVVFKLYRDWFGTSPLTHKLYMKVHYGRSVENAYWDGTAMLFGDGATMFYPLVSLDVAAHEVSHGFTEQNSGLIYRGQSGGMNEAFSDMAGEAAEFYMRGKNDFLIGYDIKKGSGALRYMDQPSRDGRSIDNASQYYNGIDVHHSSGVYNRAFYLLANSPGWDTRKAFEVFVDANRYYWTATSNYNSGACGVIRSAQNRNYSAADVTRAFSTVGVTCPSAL

For the molecule `O=C(O)CC1(C(=O)NCc2nc3ccc(OCCCO)cc3s2)Cc2ccccc2C1` [Example 1, 2-[2-[[6-(3-hydroxypropoxy)-1,3-benzothiazol-2-yl]methylcarbamoyl]indan-2-yl]acetic acid], the inhibition at 25 µM in test [1] was over 75%.

Take `CCCOc1ccc2nc(CNC(=O)C3(CC(=O)O)Cc4ccccc4C3)sc2c1` [Example 2, 2-[2-[(6-propoxy-1,3-benzothiazol-2-yl)methylcarbamoyl]indan-2-yl]acetic acid]: the inhibition at 25 µM in test [1] is over 75%. Turning to `COc1cc2sc(CNC(=O)C3(CC(=O)O)Cc4ccccc4C3)nc2cc1OCCCN(C)C` [Example 3, 2-[2-[[5-[3-(dimethylamino)propoxy]-6-methoxy-1,3-benzothiazol-2-yl]methylcarbamoyl]indan-2-yl]acetic acid], in test [1], the inhibition at 25 µM was over 75%.

For the molecule `COc1cc2sc(CNC(=O)C3(CC(=O)[O-])Cc4ccccc4C3)nc2cc1OCCC[N+](C)(C)C` [Example 4, 2-[2-[[6-methoxy-5-[3-(trimethylammonio)propoxy]-1,3-benzothiazol-2-yl]methylcarbamoyl]indan-2-yl]acetate], in test [1], the inhibition at 25 µM is over 75%. The “production and activation of IL-1β in the lung” value in test [2] (FIG. 2) was “inhibited the production and activation of IL-1β in mice infected by wild-type PA (PA01) at a similar level than the lasB deleted mutant”. Moreover, the “extent of infection in the lung (CFU levels)” value in test [2] (FIG. 3) is “reduced the extent of infection in the lung to the level of the LasB deleted mutant”.

As to `COc1cc2sc(CNC(=O)C3(CC(=O)[O-])Cc4ccccc4C3)nc2cc1OCCOCC[N+](C)(C)C` [Example 5, 2-[2-[[6-methoxy-5-[2-[2-(trimethylammonio)ethoxy]ethoxy]-1,3-benzothiazol-2-yl]methylcarbamoyl]indan-2-yl]acetate], in test [1], the inhibition at 25 µM fell in the range of 60 to 75%. On the same count and under the same terms, as for `COc1cc2sc(CNC(=O)C3(CC(=O)[O-])Cc4cc(F)c(F)cc4C3)nc2cc1OCCOCC[N+](C)(C)C` [Example 6, 2-[5,6-difluoro-2-[[6-methoxy-5-[2-[2-(trimethylammonio)ethoxy]ethoxy]-1,3-benzothiazol-2-yl]methylcarbamoyl]indan-2-yl]acetate], the figure is over 75%. Take `COc1cc2sc(CNC(=O)C3(CC(=O)[O-])Cc4cc(F)c(F)cc4C3)nc2cc1OCC[N+](C)(C)C` [Example 7, 2-[5,6-difluoro-2-[[6-methoxy-5-[2-(trimethylammonio)ethoxy]-1,3-benzothiazol-2-yl]methylcarbamoyl]indan-2-yl]acetate]: in test [1], the inhibition at 25 µM lay in the range of 60 to 75%.
